This is an account of results in US12662455B2, “Tetrahydrobenzo-quinoline sulfonamide derivatives useful as IgE modulators” (UCB Biopharma SRL, priority 2019, dated 2026).

T1 sequence (P01854 104-428 isoform P01854-1 C105A/N146Q/N252Q): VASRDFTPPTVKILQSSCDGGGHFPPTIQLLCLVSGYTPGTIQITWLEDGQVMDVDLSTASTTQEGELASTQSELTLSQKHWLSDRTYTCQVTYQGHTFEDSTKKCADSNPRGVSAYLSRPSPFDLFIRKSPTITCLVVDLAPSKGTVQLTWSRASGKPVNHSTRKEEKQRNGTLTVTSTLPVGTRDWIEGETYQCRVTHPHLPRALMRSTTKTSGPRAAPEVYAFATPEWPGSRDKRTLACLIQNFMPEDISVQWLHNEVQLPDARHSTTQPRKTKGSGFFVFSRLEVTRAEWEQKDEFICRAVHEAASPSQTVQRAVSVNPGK

The experiment addresses T1, IgE-Tb / soluble IgE receptor FcεRIα (Y131A mutation) (Homo sapiens, UniProt P01854, C105A/N146Q/N252Q).
T1 construct: 86 nmoles of IgE-Fc(N265Q, N371Q) (Young et al., 1995)
Briefly: in vitro FRET assay: binding of IgE-Tb to receptor FcεRIα-Y131A-AF488 and inhibition by compounds. Conditions: 5 nM IgE-Tb, 25 nM FcεRIα-Y131A-AF488, 2 hours at room temperature; read-out: FRET IC50 range. The method, then: 86 nmoles of IgE-Fc(N265Q, N371Q) (Young et al., 1995) at 172 μM in 100 mM NaHCO3, pH 9.5 was added to 1 mg of LanthaScreen™ Amine Reactive Tb Chelate (ThermoFisher catalogue number PV3583) and incubated for 16 hours at 20° C. The material was then buffer exchanged into Phosphate Buffered Saline (being, 137 mM NaCl, 2.7 mM KCl, 10 mM Na2HPO4, 1.8 mM K2HPO4, pH 7.4) and the material quantified and the degree of Tb conjugation determined by measuring the absorption at 280 nm and 343 nm.
The integrity of the conjugated material was determined by analytical size exclusion chromatography on a S200 HR 10×300 column (GE Healthcare). Typical conjugation ratios were 4:1 Tb:IgE-Fc.
400 nmoles FcεR1α(Y131A mutant) (Cook et al., 1997) at 400 μM in 100 mM NaOAc pH 5.5 was reacted with 1 mM final concentration sodium periodate (in 100 mM NaOAc, pH 5.5) for 60 minutes at 22° C. Oxidation was quenched with the addition of 40 μL of ethanediol and incubation for 60 minutes at 22° C. The protein was buffer exchanged in to conjugation buffer (50 mM NaHCO3, 150 mM NaCl, pH 9.5) and concentrated to 750 μM.
175 nmoles of protein was added to 1 mg of Alexa Fluor™ 488 hydrazide (Invitrogen) and incubated for 16 hours at 22° C. Sodium cyanoborohydride (at 100 mM in conjugation buffer) was added to a final concentration of 1 mM and incubated for 60 minutes on ice. The protein was buffer exchanged into Phosphate Buffered Saline (being, 137 mM NaCl, 2.7 mM KCl, 10 mM Na2HPO4, 1.8 mM K2HPO4, pH 7.4) and the material quantified and the degree of Alexa Fluor™ 488 conjugation determined by measuring the absorption at 280 nm and 495 nm.
The integrity of the conjugated material was determined by analytical size exclusion chromatography on a S200 HR 10×300 column (GE Healthcare). Typical conjugation ratios were 2:1 Alexa Fluor™488: sFcεR1α
The aim was to measure binding of IgE-Tb to receptor, and the inhibition thereof by compounds, using an in vitro Fluorescence Resonance Energy Transfer (FRET) Assay.
FRET reagents used were IgE labelled with Terbium (FRET donor), and soluble IgE receptor FcεRIα with a Y131A mutation, labelled with Alexa Fluor™ 488 (FRET acceptor). Unlabelled FcεRIα was also used to generate a background control. The assay buffer consisted of 20 mM Tris pH7.2, 150 mM NaCl, and 0.002% Tween, 1% DMSO.
The assay was conducted according to the following: Each assay reaction was conducted in a volume of 25 μl in a 384-well half-volume plate. 10 point compound serial dilutions (3-fold) were generated in DMSO at a concentration of ×50 that of the final assay concentration (FAC). Compound solutions were then prepared by IgE-Tb diluting 10-fold in assay buffer. For the assay, 5 μl of diluted compound was added to 10 μl of, followed by addition of 10 μl FcεRIα-Y131A-AF488. FRET reagents FACs were 5 nM IgE-Tb, 25 nM FcεRIα-Y131A-AF488. Usually the top FAC of compound in the assay was 10 μM. The final DMSO concentration was 2%. The minimum signal (MIN) was measured by adding 5 μl unlabelled FcεRIα at 1 μM (FAC=200 nM) to the FRET reagents. The maximum FRET signal (MAX) was measured in wells containing FRET reagents but no compound.
The assay was incubated for 2 hours at room temperature, protected from light and evaporation, and with gentle agitation.
Measurement of FRET for each well was carried out by exciting at 330 nm and measuring emission at 495/520 nm using an Envision plate reader (Perkin Elmer). FRET ratio was calculated as follows: Emission at 520/Emission at 495×1000.
The FRET ratio was used for the data analysis.
Z′ was calculated as follows (σ=standard deviation and μ=mean): 1−((3×σ^MAX)+(3×σMIN))/(μMAX−μMIN)
Z′ above 0.5 was considered a good assay.
Background signal (MIN) was subtracted from all wells. Using the background subtracted values, the percent inhibition by compound in each test-well was calculated as follows: 100−Test-well FRET ratio/MAX FRET ratio×100.
Percent inhibition was plotted against compound concentration. […]
As for `CCNC(=O)NC1CCCc2cc(S(=O)(=O)NCC(C)C)c3cc(C4CC4)ncc3c21` (stereo not drawn) [Example 3, 1-[3-cyclopropyl-5-(2-methylpropylsulfamoyl)-7,8,9,10-tetrahydrobenzo[h]isoquinolin-10-yl]-3-ethylurea], the half-maximal inhibitory concentration (IC50) (in general, the concentration at which inhibition is half-maximal) was in the range of 100 to 1000 nM.

For the compound `Cc1cc(Nc2nncn2C2CCCc3c2cc(S(=O)(=O)NCC(C)(C)F)c2cc(C4CC4)ncc32)n(C)n1` (stereo not drawn) [Example 7, 3-cyclopropyl-7-[3-[(2,5-dimethylpyrazol-3-yl)amino]-1,2,4-triazol-4-yl]-N-(2-fluoro-2-methylpropyl)-7,8,9,10-tetrahydrobenzo[h]isoquinoline-5-sulfonamide], the IC50 fell in the range of 100 to 1000 nM.

Turning to `Cc1cc(NC(=O)NC2CCCc3c2cc(S(=O)(=O)NCC(C)(C)F)c2cc(C4CC4)ncc32)n(C)n1` (stereo not drawn) [Example 11, 1-[3-cyclopropyl-5-[(2-fluoro-2-methylpropyl)sulfamoyl]-7,8,9,10-tetrahydrobenzo[h]isoquinolin-7-yl]-3-(2,5-dimethylpyrazol-3-yl) urea], the half-inhibitory concentration (IC50) lay in the range of 100 to 1000 nM.

On to `CCOC(=O)c1ncn(C2CCCc3c2cc(S(=O)(=O)NCC(C)(C)F)c2cc(C4CC4)ncc32)c1N` (stereo not drawn) [Example 9, ethyl 5-amino-1-[3-cyclopropyl-5-[(2-fluoro-2-methylpropyl)sulfamoyl]-7,8,9,10-tetrahydrobenzo[h]isoquinolin-7-yl]imidazole-4-carboxylate], for which the half-maximal inhibitory concentration (IC50) was in the range of 100 to 1000 nM.

As for `Cc1noc(-c2cncc(NC3CCCc4c3cc(S(=O)(=O)NCC(C)(C)F)c3cc(C5CC5)ncc43)c2)n1` (stereo not drawn) [Example 10, 3-cyclopropyl-N-(2-fluoro-2-methylpropyl)-7-[[5-(3-methyl-1,2,4-oxadiazol-5-yl)pyridin-3-yl]amino]-7,8,9,10-tetrahydrobenzo[h]isoquinoline-5-sulfonamide], the IC50 lay within 50 to 100 nM.

Consider `Cn1nnc(-c2ccc(NC3CCCc4cc(S(=O)(=O)NCC(C)(C)F)c5cc(C6CC6)ncc5c43)cn2)n1` (stereo not drawn) [Example 8, 3-cyclopropyl-N-(2-fluoro-2-methylpropyl)-10-[[6-(2-methyltetrazol-5-yl)pyridin-3-yl]amino]-7,8,9,10-tetrahydrobenzo[h]isoquinoline-5-sulfonamide], for which the IC50 was 100 to 1000 nM.

`CC(C)CNS(=O)(=O)c1cc2c(c3cnc(C4CC4)cc13)C(NS(C)(=O)=O)CCC2` (stereo not drawn) [Example 5, 3-cyclopropyl-10-(methanesulfonamido)-N-(2-methylpropyl)-7,8,9,10-tetrahydrobenzol[h]isoquinoline-5-sulfonamide]: the 50% inhibitory concentration (IC50) was 1000 to 5000 nM.

As to `CC(C)CNS(=O)(=O)c1cc2c(c3cnc(C4CC4)cc13)CCCC2NS(C)(=O)=O` (stereo not drawn) [Example 4, 3-cyclopropyl-7-(methanesulfonamido)-N-(2-methylpropyl)-7,8,9,10-tetrahydrobenzo[h]isoquinoline-5-sulfonamide], the IC50 is 100 to 1000 nM.

With `Cn1nnc(-c2ccc(NC3CCCc4c3cc(S(=O)(=O)NCC(C)(C)F)c3cc(C5CC5)ncc43)cn2)n1` (stereo not drawn) [Example 6], the half-inhibitory concentration (IC50) fell in the range of 10 to 50 nM.

In the case of `CCOC(=O)c1cn(C2CCCc3c2cc(S(=O)(=O)NCC(C)(C)F)c2cc(C4CC4)ncc32)cn1` (stereo not drawn) [Example 12, ethyl 1-[3-cyclopropyl-5[(2-fluoro-2-methylpropyl)sulfamoyl]-7,8,9,10-tetrahydrobenzo[h]isoquinolin-7-yl]imidazole-4-carboxylate], the 50% inhibitory concentration (IC50) fell in the range of 100 to 1000 nM.

`CC(C)CNS(=O)(=O)c1cc2c(c3cnc(C4CC4)cc13)CCCC2` [Example 1, 3-cyclopropyl-N-(2-methylpropyl)-7,8,9,10-tetrahydrobenzo[h]isoquinoline-5-sulfonamide]: the concentration for half-maximal inhibition (IC50) is 100 to 1000 nM.

For the compound `CCNC(=O)NC1CCCc2c1cc(S(=O)(=O)NCC(C)C)c1cc(C3CC3)ncc21` (stereo not drawn) [Example 2, 1-[3-cyclopropyl-5-(2-methylpropylsulfamoyl)-7,8,9,10-tetrahydrobenzo[h]isoquinolin-7-yl]-3-ethylurea], the IC50 is 50 to 100 nM.
